From patent US9751865B2, “Dihydro-hydantoin derivatives with herbicidal activity” (SYNGENTA PARTICIPATIONS AG, priority 2013, dated 2017)

Columns and labels:
Type in all cases: in vivo
[1] = test system: Abutilon theophrasti; test: Pre-emergence herbicidal activity, ABUTH; design: key: 5=total damage to plant; 0=no damage to plant; settings: application pre-emergence, 1000 g/Ha, evaluated after 13 days, scale 0-5
Experimental: (§1) Seeds of a variety of test species were sown in standard soil in pots. After cultivation for one day (pre-emergence) under controlled conditions in a glasshouse (at 24/16° C., day/night; 14 hours light; 65% humidity), the plants were sprayed with an aqueous spray solution derived from the formulation of the technical active ingredient in acetone/water (50:50) solution containing 0.5% Tween 20 (polyoxyethelyene sorbitan monolaurate, CAS RN 9005-64-5). The test plants were then grown in a glasshouse under controlled conditions (at 24/16° C., day/night; 14 hours light; 65% humidity) and watered twice daily. After 13 days, the test was evaluated (5=total damage to plant; 0=no damage to plant).

[2] = test system: Amaranthus retroflexus; test: Pre-emergence herbicidal activity, AMARE; design: key: 5=total damage to plant; 0=no damage to plant; settings: application pre-emergence, 1000 g/Ha, evaluated after 13 days, scale 0-5
Experimental: as §1

[3] = test system: Echinochloa crus-galli; test: Pre-emergence herbicidal activity, ECHCG; design: key: 5=total damage to plant; 0=no damage to plant; settings: application pre-emergence, 1000 g/Ha, evaluated after 13 days, scale 0-5
Experimental: as §1

[4] = test system: Setaria faberi; test: Pre-emergence herbicidal activity, SETFA; design: key: 5=total damage to plant; 0=no damage to plant; settings: application pre-emergence, 1000 g/Ha, evaluated after 13 days, scale 0-5
Experimental: as §1

[5] = test system: Alopecurus myosuroides; test: Pre-emergence herbicidal activity, ALOMY; settings: application pre-emergence, 1000 g/Ha, evaluated after 13 days, scale 0-5
Experimental: as §1

[6] = test system: Zea mays; test: Pre-emergence herbicidal activity, ZEAMX; design: key: 5=total damage to plant; 0=no damage to plant; settings: application pre-emergence, 1000 g/Ha, evaluated after 13 days, scale 0-5
Experimental: as §1

[7] = test system: Abutilon theophrasti; test: Post-emergence herbicidal activity, ABUTH; design: key: 5=total damage to plant; 0=no damage to plant; settings: application post-emergence, 1000 g/Ha, evaluated after 13 days, scale 0-5
Experimental: (§2) Seeds of a variety of test species were sown in standard soil in pots. After 8 days cultivation (post-emergence) under controlled conditions in a glasshouse (at 24/16° C., day/night; 14 hours light; 65% humidity), the plants were sprayed with an aqueous spray solution derived from the formulation of the technical active ingredient in acetone/water (50:50) solution containing 0.5% Tween 20 (polyoxyethelyene sorbitan monolaurate, CAS RN 9005-64-5). The test plants were then grown in a glasshouse under controlled conditions (at 24/16° C., day/night; 14 hours light; 65% humidity) and watered twice daily. After 13 days, the test was evaluated (5=total damage to plant; 0=no damage to plant).

[8] = test system: Setaria faberi; test: Post-emergence herbicidal activity, SETFA; design: key: 5=total damage to plant; 0=no damage to plant; settings: application post-emergence, 1000 g/Ha, evaluated after 13 days, scale 0-5
Experimental: as §2

[9] = test system: Amaranthus retroflexus; test: Post-emergence herbicidal activity, AMARE; design: key: 5=total damage to plant; 0=no damage to plant; settings: application post-emergence, 1000 g/Ha, evaluated after 13 days, scale 0-5
Experimental: as §2

[10] = test system: Echinochloa crus-galli; test: Post-emergence herbicidal activity, ECHCG; design: key: 5=total damage to plant; 0=no damage to plant; settings: application post-emergence, 1000 g/Ha, evaluated after 13 days, scale 0-5
Experimental: as §2

[11] = test system: Zea mays; test: Post-emergence herbicidal activity, ZEAMX; design: key: 5=total damage to plant; 0=no damage to plant; settings: application post-emergence, 1000 g/Ha, evaluated after 13 days, scale 0-5
Experimental: as §2

[12] = test system: Alopecurus myosuroides; test: Post-emergence herbicidal activity, ALOMY; design: key: 5=total damage to plant; 0=no damage to plant; settings: application post-emergence, 1000 g/Ha, evaluated after 13 days, scale 0-5
Experimental: as §2

| Compound | ABUTH damage score [1] | AMARE damage score [2] | ECHCG damage score [3] | SETFA damage score [4] | ALOMY damage score [5] | ZEAMX damage score [6] | ABUTH damage score [7] | SETFA damage score [8] | AMARE damage score [9] | ECHCG damage score [10] | ZEAMX damage score [11] | ALOMY damage score [12] |
| --- | --- | --- | --- | --- | --- | --- | --- | --- | --- | --- | --- | --- |
| CON1C(=O)N(c2cc(C(F)(F)F)n(C)n2)C(O)C1C (stereo not drawn) [Compound A4, 4-hydroxy-1-methoxy-5-methyl-3-[1-methyl-5-(trifluoromethyl)pyrazol-3-yl]imidazolidin-2-one] | 5 | 5 | 4 | 4 | 4 | 3 | 5 | 5 | 5 | 5 | 5 | 5 |
| COCC1C(O)N(c2cc(C(C)(C)OC)n(C)n2)C(=O)N1C (stereo not drawn) [Compound A21] | 5 | 5 | 4 | 4 | – | 2 | 5 | 4 | 5 | 3 | 2 | – |
| CCOC1C(O)N(c2cc(C(C)(C)C)n(C)n2)C(=O)N1C (stereo not drawn) [Compound A10] | 5 | 5 | 5 | 4 | 4 | 2 | 5 | 5 | 5 | 5 | 5 | 5 |
| CC1C(O)N(c2nn(C)c(C(C)(C)C)c2C#N)C(=O)N1C (stereo not drawn) [Compound A6] | 5 | 2 | 2 | 2 | 1 | 1 | 5 | 5 | 5 | 4 | 2 | 4 |
| COCC1C(O)N(c2cc(C(C)(C)C)n(C)n2)C(=O)N1C (stereo not drawn) [Compound A22] | 5 | 5 | 1 | 1 | 2 | 0 | 5 | 5 | 5 | 5 | 4 | – |
| COC(C)(C)c1cc(N2C(=O)N(C)CC2O)nn1C (stereo not drawn) [Compound A18] | 5 | 5 | 4 | 4 | – | 2 | 5 | 5 | 5 | 4 | 2 | – |
| CN1CC(O)N(c2nn(C)c(C(C)(C)C)c2C#N)C1=O (stereo not drawn) [Compound A5] | 2 | 4 | 0 | 0 | 1 | 0 | 4 | 3 | 5 | 3 | 2 | 3 |
| CC1C(O)N(c2cc(C(C)(C)C)n(C)n2)C(=O)N1C (stereo not drawn) [Compound A7] | 4 | 5 | 4 | 5 | 4 | 2 | 5 | 5 | 5 | 5 | 4 | 4 |
| CC1NC(=O)N(c2cc(C(C)(C)C)n(C)n2)C1O (stereo not drawn) [Compound A17] | 4 | 5 | 4 | 3 | 3 | 1 | 4 | 2 | 4 | 3 | 0 | 3 |
| CON1C(=O)N(c2cc(C(C)(C)OC)n(C)n2)C(O)C1C (stereo not drawn) [Compound A19] | 5 | 5 | 4 | 4 | – | 2 | 5 | 5 | 5 | 5 | 3 | – |
| CN1CC(O)N(c2cc3n(n2)CCC3(C)C)C1=O (stereo not drawn) [Compound A14] | 5 | 5 | 4 | 4 | 4 | 3 | 5 | 5 | 5 | 5 | 5 | 5 |
| C[C@@H]1C(O)N(c2cc(C(F)(F)F)n(C)n2)C(=O)N1C (stereo partly drawn) [Compound A15, (5R)-4-hydroxy-1,5-dimethyl-3-[1-methyl-5-(trifluoromethyl)pyrazol-3-yl]imidazolidin-2-one] | 5 | 5 | 2 | 3 | 2 | 1 | 5 | 5 | 5 | 5 | 5 | 5 |
| CN1C(=O)N(c2cc(C(F)(F)F)n(C)n2)C(O)C1O (stereo not drawn) [Compound A12, 4,5-dihydroxy-1-methyl-3-[1-methyl-5-(trifluoromethyl)pyrazol-3-yl]imidazolidin-2-one] | 5 | 5 | 4 | 4 | 4 | 1 | 5 | 5 | 5 | 5 | 4 | 5 |
| CCOC1C(O)N(c2cc(C(F)(F)F)n(C)n2)C(=O)N1C (stereo not drawn) [Compound A8, 5-ethoxy-4-hydroxy-1-methyl-3-[1-methyl-5-(trifluoromethyl)pyrazol-3-yl]imidazolidin-2-one] | 5 | 5 | 5 | 4 | 4 | 2 | 5 | 5 | 5 | 5 | 4 | 5 |
| CON1C(=O)N(c2cc(C(C)(C)C)n(C)n2)C(O)C1C (stereo not drawn) [Compound A3] | 5 | 5 | 4 | 4 | 4 | 3 | 5 | 5 | 5 | 5 | 4 | 5 |
| CON1C(=O)N(c2cc3n(n2)CCC3(C)C)C(O)C1C (stereo not drawn) [Compound A1] | 5 | 5 | 5 | 4 | 4 | 3 | 5 | 5 | 5 | 5 | 5 | 4 |
| COC(C)(C)c1cc(N2C(=O)N(C)C(C)C2O)nn1C (stereo not drawn) [Compound A20] | 5 | 5 | 4 | 4 | – | 2 | 5 | 4 | 5 | 5 | 3 | – |
